Measured values taken from patent US20220401385A1, “Combination Therapy Based on PD-1 Signaling Inhibitors” (Kyoto University, priority 2019, published 2022).

Test system: MC38 cells
Test: MC38 mouse therapy model, tumor growth and survival
Format: in vivo, C57BL/6 mice
Method: FIG. 1-1 a) CD8^+ T cells or CD3^+ T cells were isolated from mice, and 2×10^5 cells were stimulated with CD3/CD28 beads in 96-well U plates. After 24 hours and 48 hours, cells and culture supernatant were collected, followed by measurement of spermidine (SPD) concentration by mass spectrometry. […] Ten days after inoculation, PD-L1 antibody (2 mg/kg), PD-L1 antibody+SPD (2 mg/kg), or SPD alone was administered. Subsequently, PD-L1 antibody was administered 4 times at a regular interval of 5 days, and SPD was administered 8 times at a regular interval of 3 days. Tumor growth curve and survival curve are shown. c) Draining lymph nodes (DLNs) of mice were isolated 13 days after tumor inoculation, and stained with antibodies to CD8, CD44 and CD62L. The number of cells in draining lymph node (cells/DLN) in each treatment group is shown at the left side. After being gated, CD8^+ T cells were fractionated with CD44 and CD62L into P1 to P4 cell populations. Percentages and cell numbers of P1 to P4 in each treatment group are shown. d) Tumor was isolated 13 days after tumor inoculation and treated with collagenase. Percentages and numbers per mg tumor of tumor-infiltrating CD8^+ CD45.2^+ cells are shown. For statistical analysis, ANOVA was used. * p<0.05, ** p<0.01, *** p<0.001, **** p<0.0001.
FIG. 8 MC38 cells (5×10^5) were intradermally inoculated into C57BL/6 mice. Ten days after inoculation, PD-L1 antibody (2 mg/kg), PD-L1 antibody+SPD (2 mg/kg) or PD-L1 antibody+SPM (6 mg/kg) was administered. Subsequently, […] was administered 4 times at a regular interval of 5 days, whereas SPD and SPM were administered 8 times at a regular interval of 3 days. Tumor growth curve is shown.
MC38 cells (5×10^5) were intradermally injected on the right flank. Ten days after inoculation, PD-L1 antibody (1-111A; prepared by and stored at the Department of Immunology and Genomic Medicine, Graduate School of Medicine, Kyoto University) (Immunology Letters 84 (2002) 57-62) (2 mg/kg), PD-L1 antibody+SPD (2 mg/kg) or SPD alone was administered to mice. Subsequently, PD-L1 antibody was administered 4 times at a regular interval of 5 days, and SPD was administered 8 times at a regular interval of 3 days. Tumors were measured on every alternate day, and tumor volumes were calculated using the formula for typical ellipsoid, π×(length×breadth×height/6).

`NCCCNCCCCNCCCN` [SPM, spermine] was tested, and the “effectiveness compared with SPD in enhancing the antitumor effect of PD-1 inhibitory antibody” value (SPM 6 mg/kg versus SPD 2 mg/kg, each + PD-L1 antibody, MC38) was “slightly less effective than SPD” and the “enhancement of the antitumor effect of PD-1 inhibitory antibody” value (SPM (6 mg/kg) + PD-L1 antibody (2 mg/kg), MC38 in C57BL/6 mice) was “induced to some extent an enhancement”.
